Patent US20240270748A1 (Merck Patent GmbH, priority 2021, published 2024)

Experiments:
NCI-H226 cells = assay: Viability assay in NCI-H226 (Yap-dependent) cells, CyQuant; assay type: cell-based, human; settings: class symbols
Experimental: (§1) Viability Assay in NCI-H226 (Yap-Dependent) and SW620 Yap KO (Yap Independent) Cells
(§2) The ability of YAP-TEAD inhibitors to inhibit tumor cell growth was evaluated using two different cell lines: NCI-H226, which is a YAP dependent cell line, and SW620 cells, where YAP and TAZ were knocked out using CRISPR to generate a YAP independent cell line.
(§3) For the assay, cells were treated in duplicates with the test compounds in a 10-point dose, 1:3 dilution steps, with the top concentration starting at 30 μM (final concentration in assay). After a 96 hour incubation at 37° C., 95% rH, and 5% CO2, a cell-permeant DNA-binding dye that stains only healthy cells (CyQUANT®, Promega) was added to the cells, allowing the quantification of cell viability.
(§4) Cell Media: The NCI-H226 cells were cultured in the following media: RPMI 1640, +10% FBS, +1× GlutaMAX, +10 mM HEPES, +0.5% Pen/Strep. The SW620-KO cells were cultured in the following media: DMEM/F-12, +10% FBS, +1× GlutaMAX, +10 mM HEPES, +0.5% Pen/Strep.
(§5) Reagents: The reagents used are listed below:
(§6) Cell culture: The cells were examined using an inverted microscope to check for health, cell density, etc. To dissociate adherent cells, the monolayer of cells was washed once with pre-warmed PBS. After removing the PBS, 3 ml pre-warmed Accutase was added to a F75 flask, dispersed evenly and the flask was allowed to sit in incubator for ˜4-5 minutes.
(§7) When a single cell suspension was obtained, 7 ml of prewarmed growth media was added and resuspended with the cells. The cell suspension was transferred to a sterile 15 ml conical centrifuge tube, and spun for 5 min at 300×g, RT. The supernatant was discarded and the pellet was resuspended in 10 ml of pre-warmed growth media.
(§8) The total cell count was determined, and 20 μl of the desired cell number was added to each well of a 384 well plate using a Multidrop Combi. The plates were then incubated for 24 hours at 37° C., 95% rH, and 5% CO2.
(§9) Compound treatment: 24 hours after seeding, the cells were treated with compounds.
(§10) A 1:333 dilution of compounds, diluted in DMSO, was made to get a final concentration of 0.3% DMSO per well. To transfer the compounds to the assay plate, […] was shot from Labcyte low dead volume plates to the cell plates containing 20 μl media/well with the ECHO 555 liquid handling system.
(§11) After treatment, the cells were fed with 20 μl fresh pre-warmed assay media using a Multidrop combi.
(§12) The assay plates were then incubated for 96 h at 37° C., 95% rH, and 5% CO2.
(§13) 96 h after treatment 30 μl of CyQuant® reagent was added to the assay plates using a Multidrop combi in the dark. The plates were then incubated for 1 hour at 37° C., 95% rH and 5% CO2. Thereafter, the assay plates were removed from the incubator and allowed to equilibrate to RT for 30 min in the dark without lid. Finally, they were measured using an EnVision microplate reader with a FITC bottom read program.

SW620 Yap KO cells = assay: Viability assay in SW620 Yap KO (Yap independent) cells, CyQuant; assay type: cell-based
Experimental: as §1, §2, §3, §4, §5, §6, §7, §8, §9, §10, §11, §12, §13

YAP-TEAD interaction = assay: SK-HEP-1 reporter assay (8xTEAD responsive elements driving NanoLuc luciferase); assay type: cell-based
Outline: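 Reporter read-out: NanoLuc luminescence from 8×TEAD elements stably integrated in SK-HEP-1 cells, after 24 h compound exposure at 37° C. Ten concentrations tested in duplicate, top 30 μM final, 0.3% DMSO; IC50 from curve.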

[1] = Homo sapiens, SW-620, 96 h, n.d. = value not detectable below threshold given in parentheses, ND = not determinable within the entire range
[2] = Homo sapiens, SK-HEP1, SK-HEP-1 reporter assay, class symbols
[3] = 96 h, n.d. = value not detectable below threshold given in parentheses, ND = not determinable within the entire range
[4] = SK-HEP-1 reporter assay, class symbols

Structure (SMILES)	IC50 (NCI-H226 cells; Homo sapiens, NCI-H226, 96 h)	IC50 (SW620 Yap KO cells; [1])	IC50 (YAP-TEAD interaction; [2])	also measured
Cn1cc2c3cc(C(=O)N=S(C)(=O)CCO)ccc3n(-c3ccc(C(F)(F)F)cc3)c2n1 (single isomer, unassigned) [Example C73]	1 to 100 nM	> 30 µM	100 to 10000 nM	
Cn1cc2c3cc(C(=O)N=[S@@](C)(=O)CCO)ccc3n(-c3ccc(C(F)(F)F)cc3)c2n1 (single isomer, unassigned) [Example C74]	1 to 100 nM	> 30 µM	10 to 100 nM	
CC(NC(=O)c1ccc2c(c1)c1cn(C)nc1n2-c1ccc(C(F)(F)F)cc1)c1ccn[nH]1 (single isomer, unassigned) [Example C75]	1 to 100 nM			IC50 (SW620 Yap KO cells; [3]): > 30 µM; IC50 (YAP-TEAD interaction; [4]): 10 to 100 nM
CC(NC(=O)c1ccc2c(c1)c1cn(C)nc1n2-c1ccc(C(F)(F)F)cc1)c1ccn[nH]1 (single isomer, unassigned) [Example C76]				IC50 (NCI-H226 cells; 96 h): 1 to 100 nM; IC50 (SW620 Yap KO cells; [3]): > 3.2 µM; IC50 (YAP-TEAD interaction; [4]): 100 to 10000 nM
COCC[C@@H](CO)NC(=O)c1ccc2c(c1)c1c(C)snc1n2-c1ccc(C(F)(F)F)cc1 (single isomer, unassigned) [Example C89]	1 to 100 nM	> 30 µM	10 to 100 nM	
Cc1snc2c1c1cc(C(=O)N=S(C)(=O)CCO)ccc1n2-c1ccc(C(F)(F)F)cc1 (single isomer, unassigned) [Example C101]	1 to 100 nM	> 3.2 µM	10 to 100 nM	
Cc1snc2c1c1cc(C(=O)N=S(C)(=O)CCO)ccc1n2-c1ccc(C(F)(F)F)cc1 (single isomer, unassigned) [Example C102]	1 to 100 nM	> 30 µM	10 to 100 nM	
Cc1snc2c1c1cc(C(=O)N=S(C)(=O)CCCO)ccc1n2-c1ccc(C(F)(F)F)cc1 (single isomer, unassigned) [Example C104]	1 to 100 nM	> 3.2 µM		IC50 (YAP-TEAD interaction; [4]): 10 to 100 nM
Cn1cc2c3cc(C(=O)NC(CO)c4ccccn4)ccc3n(-c3ccc(C(F)(F)F)nc3)c2n1 (single isomer, unassigned) [Example C123]		> 30 µM	100 to 10000 nM	IC50 (NCI-H226 cells; 96 h): 100 to 1000 nM
Cn1cc2c3cc(C(=O)NC(CO)c4ccccn4)ccc3n(-c3ccc(C(F)(F)F)nc3)c2n1 (single isomer, unassigned) [Example C124]				IC50 (NCI-H226 cells; 96 h): 1000 to 10000 nM; IC50 (SW620 Yap KO cells; [3]): > 30 µM; IC50 (YAP-TEAD interaction; Homo sapiens, SK-HEP1, SK-HEP-1 reporter assay, n.d. = value not detectable below threshold given in parentheses, ND = not determinable within the entire range): > 30000 nM
Cn1nc2c3cc(C(=O)N=[S@@](=O)(CCO)Cc4ccccn4)ccc3n(-c3ccc(C(F)(F)F)cc3)c2n1 (single isomer, unassigned) [Example C157]	100 to 1000 nM		10 to 100 nM	IC50 (SW620 Yap KO cells; Homo sapiens, SW-620, 96 h, class symbols): 1 to 10 µM
Cn1nc2c3cc(C(=O)N=[S@](=O)(CCO)Cc4ccccn4)ccc3n(-c3ccc(C(F)(F)F)cc3)c2n1 (single isomer, unassigned) [Example C161]	1 to 100 nM	> 3 µM	10 to 100 nM	
Cn1cc2c3cc(C(=O)N[C@@H](CCO)c4cncs4)ccc3n(-c3ccc(C(F)(F)F)cc3)c2n1 (single isomer, unassigned) [Example C162]	1 to 100 nM	> 30 µM	10 to 100 nM	
Cn1nc2c3cc(C(=O)N=[S@](C)(=O)CCCO)ccc3n(-c3ccc(C(F)(F)F)cc3)c2n1 (single isomer, unassigned) [Example C172]	1 to 100 nM		10 to 100 nM	IC50 (SW620 Yap KO cells; Homo sapiens, SW-620, 96 h, n.d. = value not detectable below threshold given in parentheses): > 30 µM
